From patent US9593108B2, “Compounds and methods for antiviral treatment” (PTC Therapeutics, Inc., priority 2009, dated 2017)

Tests used:
[1] = test system: HCV replicon RNA (GenBank Accession No. AJ242654); assay: HCV Replicon Assay (replicon RNA reduction and/or Fluc reporter signal); format: cell-based, Hepatitis C virus; details: Hepatitis C virus, 72 h, replicon-containing cells cultured with test compound for up to 3 days
Summary of the method: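 IC50 values mostly reflect the drop in replicon RNA, though Fluc reporter signal may also be used. Compound incubated with cells carrying the bicistronic replicon for as long as 3 days; interferon served as positive control.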

## CC(C)NS(=O)(=O)c1ccc(-c2c(C#N)c3cc(F)cnc3n2CC2CC2)cc1 [Cpd 4, 4-[3-cyano-1-(cyclopropylmethyl)-5-fluoro-1H-pyrrolo[2,3-b]pyridin-2-yl]-N-(propan-2-yl)benzenesulfonamide]
other
  melting point: 162 to 165 °C
[1]
  IC50: 2000 to 5000 nM

## Cc1cnc2c(c1)c(C#N)c(-c1ccc(S(=O)(=O)N[C@@H](C)C(F)(F)F)cc1)n2CC1CCC1 [Cpd 489, 4-[3-cyano-1-(cyclobutylmethyl)-5-methyl-1H-pyrrolo[2,3-b]pyridin-2-yl]-N-[(2S)-1,1,1-trifluoropropan-2-yl]benzenesulfonamide]
other
  melting point: 154 to 158 °C
[1]
  IC50: < 500 nM

## C[C@@H](NS(=O)(=O)c1ccc(-c2c(C#N)c3cc(Cl)ncc3n2C2CCC2)cc1)C(F)(F)F [Cpd 105, 4-(5-chloro-3-cyano-1-cyclobutyl-1H-pyrrolo[2,3-c]pyridin-2-yl)-N-[(2R)-1,1,1-trifluoropropan-2-yl]benzenesulfonamide]
other
  melting point: 248 to 250 °C
[1]
  IC50: < 500 nM

## CCc1cnc2c(c1)c(C#N)c(-c1ccc(S(=O)(=O)N[C@@H](C)C(F)(F)F)cn1)n2-c1cc(F)ccn1 [Cpd 412, 6-[3-cyano-5-ethyl-1-(4-fluoropyridin-2-yl)-1H-pyrrolo[2,3-b]pyridin-2-yl]-N-[(2S)-1,1,1-trifluoropropan-2-yl]pyridine-3-sulfonamide]
other
  melting point: 201 to 205 °C
[1]
  IC50: < 500 nM

## C[C@H](NS(=O)(=O)c1ccc(-c2c(C#N)c3cc(Cl)ncc3n2C2CCC2)nc1)C(F)(F)F [Cpd 67, 6-(5-chloro-3-cyano-1-cyclobutyl-1H-pyrrolo[2,3-c]pyridin-2-yl)-N-[(2S)-1,1,1-trifluoropropan-2-yl]pyridine-3-sulfonamide]
other
  melting point: 180 to 183 °C
[1]
  IC50: < 500 nM

## CSc1cnc2c(c1)c(C(N)=O)c(-c1ccc(S(=O)(=O)NC(C)(C)C)cc1)n2C1CCC1 [Cpd 392, 2-[4-(tert-butylsulfamoyl)phenyl]-1-cyclobutyl-5-(methylsulfanyl)-1H-pyrrolo[2,3-b]pyridine-3-carboxamide]
other
  melting point: 224 to 226 °C
[1]
  IC50: < 500 nM

## CC(C)(C)NS(=O)(=O)c1ccc(-c2c(C#N)c3cc(C(F)(F)F)cnc3n2C2CCCCC2)cc1 [Cpd 422, N-tert-butyl-4-[3-cyano-1-cyclohexyl-5-(trifluoromethyl)-1H-pyrrolo[2,3-b]pyridin-2-yl]benzenesulfonamide]
other
  melting point: 176 to 178 °C
[1]
  IC50: < 500 nM

## CCc1cnc2c(c1)c(C#N)c(-c1ccc(S(=O)(=O)N[C@@H](C)C(F)(F)F)cn1)n2-c1cccc(F)c1 [Cpd 511, 6-[3-cyano-5-ethyl-1-(3-fluorophenyl)-1H-pyrrolo[2,3-b]pyridin-2-yl]-N-[(2S)-1,1,1-trifluoropropan-2-yl]pyridine-3-sulfonamide]
other
  melting point: 195 to 197 °C
[1]
  IC50: < 500 nM

## CC(C)(C)NS(=O)(=O)c1ccc(-c2c(C#N)c3cc(C(F)(F)F)cnc3n2-c2cnccn2)cc1 [Cpd 335, N-tert-butyl-4-[3-cyano-1-(pyrazin-2-yl)-5-(trifluoromethyl)-1H-pyrrolo[2,3-b]pyridin-2-yl]benzenesulfonamide]
other
  melting point: 190 to 192 °C
[1]
  IC50: < 500 nM

## CCc1cnc2c(c1)c(C#N)c(-c1ccc(S(=O)(=O)NC(C)C)nc1)n2C1CCC1 [Cpd 195, 5-(3-cyano-1-cyclobutyl-5-ethyl-1H-pyrrolo[2,3-b]pyridin-2-yl)-N-(propan-2-yl)pyridine-2-sulfonamide]
other
  melting point: 195 to 202 °C
[1]
  IC50: < 500 nM

## CC1(NS(=O)(=O)c2ccc(-c3c(C#N)c4cc(C5CC5)cnc4n3C3CCC3)cc2)CC1 [Cpd 127, 4-(3-cyano-1-cyclobutyl-5-cyclopropyl-1H-pyrrolo[2,3-b]pyridin-2-yl)-N-(1-methylcyclopropyl)benzenesulfonamide]
other
  melting point: 152 to 161 °C
[1]
  IC50: < 500 nM

## N#Cc1c(-c2ccc(S(=O)(=O)NC(CF)CF)cn2)n(C2CCC2)c2cc(Cl)ncc12 [Cpd 97, 6-(6-chloro-3-cyano-1-cyclobutyl-1H-pyrrolo[3,2-c]pyridin-2-yl)-N-(1,3-difluoropropan-2-yl)pyridine-3-sulfonamide]
other
  melting point: 215 to 216 °C
[1]
  IC50: < 500 nM

## Cc1cnc2c(c1)c(C#N)c(-c1ccc(S(=O)(=O)NC3(C(F)(F)F)CC3)cc1)n2C1CCC1 [Cpd 75, 4-(3-cyano-1-cyclobutyl-5-methyl-1H-pyrrolo[2,3-b]pyridin-2-yl)-N-[1-(trifluoromethyl)cyclopropyl]benzenesulfonamide]
other
  melting point: 187 to 188 °C
[1]
  IC50: < 500 nM

## Cc1cnc2c(C#N)c(-c3ncc(S(=O)(=O)NC(C)C)cn3)n(C3CCC3)c2c1 [Cpd 214, 2-(3-cyano-1-cyclobutyl-6-methyl-1H-pyrrolo[3,2-b]pyridin-2-yl)-N-(propan-2-yl)pyrimidine-5-sulfonamide]
other
  melting point: 278 to 280 °C
[1]
  IC50: < 500 nM

## C[C@H](NS(=O)(=O)c1ccc(-c2c(C#N)c3cc(Br)cnc3n2-c2ncccn2)nc1)C(F)(F)F [Cpd 339, 6-[5-bromo-3-cyano-1-(pyrimidin-2-yl)-1H-pyrrolo[2,3-b]pyridin-2-yl]-N-[(2S)-1,1,1-trifluoropropan-2-yl]pyridine-3-sulfonamide]
other
  melting point: 223 to 225 °C
[1]
  IC50: < 500 nM

## [2H]C(C)(C)NS(=O)(=O)c1ccc(-c2c(C#N)c3cc(C(F)(F)F)cnc3n2C2CCC2)nc1 [Cpd 513, 6-[3-cyano-1-cyclobutyl-5-(trifluoromethyl)-1H-pyrrolo[2,3-b]pyridin-2-yl]-N-[(2-deuterium)propan-2-yl]pyridine-3-sulfonamide]
other
  melting point: 191 to 193 °C
[1]
  IC50: < 500 nM

## CC1(NS(=O)(=O)c2cnc(-c3c(C#N)c4cc(C#N)cnc4n3C3CCC3)nc2)CC1 [Cpd 114, 2-(3,5-dicyano-1-cyclobutyl-1H-pyrrolo[2,3-b]pyridin-2-yl)-N-(1-methylcyclopropyl)pyrimidine-5-sulfonamide]
other
  melting point: 229 to 231 °C
[1]
  IC50: < 500 nM

## N#Cc1c(-c2ccc(S(=O)(=O)NC(CF)CF)cn2)n(C2CCCC2)c2ncc(Cl)cc12 [Cpd 10, 6-(5-chloro-3-cyano-1-cyclopentyl-1H-pyrrolo[2,3-b]pyridin-2-yl)-N-(1,3-difluoropropan-2-yl)pyridine-3-sulfonamide]
other
  melting point: 208 to 209 °C
[1]
  IC50: < 500 nM

## Cc1cnc2c(c1)c(C#N)c(-c1ccc(S(=O)(=O)N[C@@H](C)C(F)(F)F)cc1)n2CC(C)C [Cpd 488, 4-[3-cyano-5-methyl-1-(2-methylpropyl)-1H-pyrrolo[2,3-b]pyridin-2-yl]-N-[(2S)-1,1,1-trifluoropropan-2-yl]benzenesulfonamide]
other
  melting point: 168 to 176 °C
[1]
  IC50: < 500 nM

## CCc1cc2c(C#N)c(-c3ccc(S(=O)(=O)N[C@@H](C)C(F)(F)F)cc3)n(C3CCC3)c2cn1 [Cpd 219, 4-(3-cyano-1-cyclobutyl-5-ethyl-1H-pyrrolo[2,3-c]pyridin-2-yl)-N-[(2S)-1,1,1-trifluoropropan-2-yl]benzenesulfonamide]
other
  melting point: 200 to 203 °C
[1]
  IC50: < 500 nM

## CCC(NS(=O)(=O)c1ccc(-c2c(C#N)c3cc(OC)cnc3n2C2CCC2)nc1)C(F)(F)F (centres unmarked) [Cpd 261, 6-(3-cyano-1-cyclobutyl-5-methoxy-1H-pyrrolo[2,3-b]pyridin-2-yl)-N-(1,1,1-trifluorobutan-2-yl)pyridine-3-sulfonamide]
other
  melting point: 185 to 190 °C
[1]
  IC50: < 500 nM

## Cc1cnc2c(C#N)c(-c3ccc(S(=O)(=O)NC(CF)CF)cn3)n(C3CCCC3)c2c1 [Cpd 176, 6-(3-cyano-1-cyclopentyl-6-methyl-1H-pyrrolo[3,2-b]pyridin-2-yl)-N-(1,3-difluoropropan-2-yl)pyridine-3-sulfonamide]
other
  melting point: 248 to 249 °C
[1]
  IC50: < 500 nM

## Cc1cnc2c(c1)c(C#N)c(-c1ccc(S(=O)(=O)NC(C)(C)C)cn1)n2-c1ccccn1 [Cpd 525, N-tert-butyl-6-[3-cyano-5-methyl-1-(pyridin-2-yl)-1H-pyrrolo[2,3-b]pyridin-2-yl]pyridine-3-sulfonamide]
other
  melting point: 214.2 to 215.4 °C
[1]
  IC50: 500 to 2000 nM

## Cc1ncc2c(C#N)c(-c3ccc(S(=O)(=O)N[C@@H](C)C(F)(F)F)cc3)n(C3CCCC3)c2n1 [Cpd 164, 4-(5-cyano-7-cyclopentyl-2-methyl-7H-pyrrolo[2,3-d]pyrimidin-6-yl)-N-[(2S)-1,1,1-trifluoropropan-2-yl]benzenesulfonamide]
other
  melting point: 202 to 204 °C
[1]
  IC50: 500 to 2000 nM

## N#Cc1c(-c2ncc(S(=O)(=O)NC(CF)CF)cn2)n(C2CCC2)c2ncc(C3CC3)cc12 [Cpd 132, 2-(3-cyano-1-cyclobutyl-5-cyclopropyl-1H-pyrrolo[2,3-b]pyridin-2-yl)-N-(1,3-difluoropropan-2-yl)pyrimidine-5-sulfonamide]
other
  melting point: 189 to 197 °C
[1]
  IC50: < 500 nM

## CC(C)(NS(=O)(=O)c1ccc(-c2c(C(N)=O)c3cc(C(F)F)cnc3n2C2CCC2)nc1)C(F)(F)F [Cpd 471, 1-cyclobutyl-5-(difluoromethyl)-2-{5-[(1,1,1-trifluoro-2-methylpropan-2-yl)sulfamoyl]pyridin-2-yl}-1H-pyrrolo[2,3-b]pyridine-3-carboxamide]
other
  melting point: 205 to 207 °C
[1]
  IC50: < 500 nM

## C[C@@H](NS(=O)(=O)c1ccc(-c2c(C#N)c3cc(F)cnc3n2CC2CC2)nc1)C(F)(F)F [Cpd 60, 6-[3-cyano-1-(cyclopropylmethyl)-5-fluoro-1H-pyrrolo[2,3-b]pyridin-2-yl]-N-[(2R)-1,1,1-trifluoropropan-2-yl]pyridine-3-sulfonamide]
other
  melting point: 185 to 187 °C
[1]
  IC50: < 500 nM

## N#Cc1c(-c2ccc(S(=O)(=O)NC3(C(F)(F)F)CC3)cn2)n(C2CCC2)c2ncc(C(F)(F)F)cc12 [Cpd 396, 6-[3-cyano-1-cyclobutyl-5-(trifluoromethyl)-1H-pyrrolo[2,3-b]pyridin-2-yl]-N-[1-(trifluoromethyl)cyclopropyl]pyridine-3-sulfonamide]
other
  melting point: 156 to 158 °C
[1]
  IC50: < 500 nM
